Where “and” joins values, the source holds several entries; their conditions need not be identical. Equal entries are not always repeated. Where two headings read alike, the source gives them in different places. No end group written: not given here.

For experiment [1], the target named is T1, CRHR1 (Homo sapiens, UniProt P34998).
T1 sequence (P34998 24-415): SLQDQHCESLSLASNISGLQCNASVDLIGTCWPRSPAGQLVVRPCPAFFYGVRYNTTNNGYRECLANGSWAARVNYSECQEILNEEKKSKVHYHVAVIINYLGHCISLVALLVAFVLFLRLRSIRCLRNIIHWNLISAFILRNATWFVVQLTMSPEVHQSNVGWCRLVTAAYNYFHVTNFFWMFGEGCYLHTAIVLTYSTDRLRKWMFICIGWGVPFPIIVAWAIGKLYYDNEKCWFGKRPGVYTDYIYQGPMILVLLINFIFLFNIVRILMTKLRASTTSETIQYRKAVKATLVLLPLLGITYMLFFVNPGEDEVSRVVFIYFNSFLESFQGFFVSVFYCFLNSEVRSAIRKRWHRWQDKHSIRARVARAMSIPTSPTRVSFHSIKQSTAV
The experiment is described as follows: cAMP assay in h-CRHR1 transfected SK-N-MC cells. The settings on record: for Experimental nH: Table 11, Hill slope. It is filed as cell-based. Also on record: expressed in transfected cells. As to the method:
Human CRHR1 (accession number X72304) or CRHR2 (accession number U34587) were cloned into pcDNA3.1/Zeo expression vector and stably transfected into SK-N-MC cells by electroporation. Cells were maintained in MEM w/Earl's Salt with 10% FBS, 50 I.U. penicillin, 50 μg/ml streptomycin, 2 mM L-glutamine, 1 mM sodium pyruvate and 0.1 mM nonessential amino acids, 600 μg/ml G418. Cells were grown at 37° C. in 5% CO2.
Cells were plated in 96-well tissue culture dishes (Biocoat from BD Biosciences) overnight at 50,000 cell/well. Cells were washed with PBS then resuspended in DMEM F-12 without phenol red, containing 10 μM isobutylmethylxanthine (IBMX). Cells were incubated with the peptides at concentrations ranging from 1 pM to 10 μM for 60 min at 37° Celsius. […] Forskolin (10 μM), a direct stimulant of adenylate cyclase, was used as positive control. The assays were stopped by the addition of 0.5 M HCl and mixing by orbital rotation for 2 h at 4° Celsius.
Transfected SK-N-MC cells were plated in 96-well Biocoat tissue culture dishes (BD Biosciences, San Jose, Calif., U.S.A) overnight at 50,000 cell/well. […]
Individual agonist concentration-response curve data were fitted to the Hill equation, see formula below, using GraphPad Prism (Graphpad Software, La Jolla, Calif., U.S.A.), to provide estimates of agonist concentration needed to generate one-half maximal response (A50), and the maximal asymptote (α) and Hill slope (nH) parameters. In this equation, [A] is the agonist concentration and E is the measured effect:
For display purposes the mean fitted parameter estimates were used to generate a single E/[A] curve shown superimposed on the mean experimental data. Potency estimates for agonists, pA50, are expressed as the negative logarithm of the midpoint of each curve and listed with their standard error of measurement (SEM).
Human and rat peptides (see Table 10) were used on the stimulation of h-CRHR1 or h-CRHR2 transfected SK-N-MC cells in the cAMP flash plate assay. […] Curves were calculated using non-linear regression sigmoidal concentration-response analysis calculation in GraphPad Prism.
(In general: cAMP levels reflect the balance of adenylyl cyclase and phosphodiesterase activity.)

In experiment [2] the target is T1, CRHR1. Nature of the experiment: Radioligand binding CRHR1 assay, [125I]-(Tyr0)-sauvagine. The settings on record: Table 15; slope of competition curve. Also on record: expressed in transfected cells; host or cells: cell membranes. As to the method:
The solution was then homogenized with a Polytron tissue grinder at a setting of 10 and 7×3 s (Brinkmann Instruments, Westbury, N.Y.). The homogenate was centrifuged at 4° Celsius at 800×g for 5 min with the pellet being discarded. […] All binding assays were conducted in 96-well Multiscreen GF/B filter plates (Millipore, Billericay, Mass., U.S.A.) that were pre-soaked in assay buffer with 0.3% PEI for 1 hour. […] The bound radioactivity was separated by filtration using a Multiscreen Resist manifold (Millipore Corp., Billerica, Mass., U.S.A). The filters were washed three times with ice-cold PBS at pH 7.5 and radioactivity retained on the filters was quantified by its liquid scintillation measured by a TopCount counter (Packard BioScience, Boston, Mass., U.S.A). All experiments were performed in triplicate.

A further experiment concerns the target T2, h-CRHR2b (Homo sapiens, UniProt Q13324).
T2 sequence (Q13324 1-438 isoform Q13324-2): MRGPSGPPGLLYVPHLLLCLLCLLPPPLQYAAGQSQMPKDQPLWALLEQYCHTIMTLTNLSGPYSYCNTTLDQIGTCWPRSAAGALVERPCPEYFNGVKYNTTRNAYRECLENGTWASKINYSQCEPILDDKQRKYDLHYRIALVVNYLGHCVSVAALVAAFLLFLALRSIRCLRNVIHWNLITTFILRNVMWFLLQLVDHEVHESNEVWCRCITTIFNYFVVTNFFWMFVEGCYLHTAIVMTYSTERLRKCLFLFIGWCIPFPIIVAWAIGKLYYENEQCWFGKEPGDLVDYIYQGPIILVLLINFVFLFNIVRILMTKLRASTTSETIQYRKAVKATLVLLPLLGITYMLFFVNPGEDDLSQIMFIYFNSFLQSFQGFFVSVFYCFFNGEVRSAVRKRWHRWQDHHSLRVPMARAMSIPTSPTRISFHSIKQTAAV
The settings on record: h-CRHR2b transfected HEK-293 cells, approximated from concentration response curves, Hsu et al. 2001; cited from earlier work.

The test system of experiment [3] is isolated rat aortic rings. The experiment is described as follows: Vascular smooth muscle relaxation, isolated rat aortic rings pre-contracted with phenylephrine. The text has this: The ability of h-SCP (SEQ ID NO:1) to relax vascular smooth muscle was examined in isolated, rat aortic rings pre-contracted with phenylephrine (PE) (see FIG. 6). […] The responses caused by h-SCP (SEQ ID NO:1) were inhibited by anti-sauvagine-30 (SEQ ID NO:118).

The test system of experiment [4] is Langendorff perfused rabbit heart. Nature of the experiment: Retrograde-perfused Langendorff rabbit heart assay. The settings on record: bolus into the perfusion block. Here is the method: The effect of h-SCP (SEQ ID NO:1) on heart rate (HR), left ventricular (LV) contraction, and vascular tone was assessed in a retrograde-perfused Langendorff rabbit heart assay.

For `CC[C@H](C)[C@H](NC(=O)[C@H](CO)NC(=O)[C@H](CC(C)C)NC(=O)[C@@H]1CCCN1C(=O)[C@@H]1CCCN1C(=O)[C@H](CC(=O)O)NC(=O)[C@@H](N)CC(=O)O)C(=O)N[C@@H](CC(=O)O)C(=O)N[C@@H](CC(C)C)C(=O)N[C@H](C(=O)N[C@@H](Cc1ccccc1)C(=O)N[C@@H](Cc1c[nH]cn1)C(=O)N[C@@H](CC(C)C)C(=O)N[C@@H](CC(C)C)C(=O)N[C@@H](CCCNC(=N)N)C(=O)N[C@H](C(=O)N[C@@H](CC(C)C)C(=O)N[C@@H](CC(C)C)C(=O)N[C@@H](CCC(=O)O)C(=O)N[C@@H](CC(C)C)C(=O)N[C@@H](C)C(=O)N[C@@H](CCCNC(=N)N)C(=O)N[C@H](C(=O)N[C@@H](CCC(N)=O)C(=O)N[C@@H](CO)C(=O)N[C@@H](CCC(N)=O)C(=O)N[C@@H](CCCNC(=N)N)C(=O)N[C@@H](CCC(=O)O)C(=O)N[C@@H](CCCNC(=N)N)C(=O)N[C@@H](C)C(=O)N[C@@H](CCC(=O)O)C(=O)N[C@@H](CCC(N)=O)C(=O)N[C@@H](CC(N)=O)C(=O)N[C@@H](CCCNC(=N)N)C(=O)N[C@H](C(=O)N[C@H](C(=O)N[C@@H](Cc1ccccc1)C(=O)N[C@@H](CC(=O)O)C(=O)N[C@@H](CO)C(=O)N[C@H](C(N)=O)C(C)C)[C@@H](C)CC)[C@@H](C)CC)[C@@H](C)O)[C@@H](C)O)[C@@H](C)O` [SEQ ID NO: 114, DDPPLSIDLTFHLLRTLLELARTQSQRERAEQNRIIFDSV-NH2], on CRHR1 [1], the “Experimental nH” value is reported as 1.15. Moreover, the “Experimental αmax” value at CRHR1 [1] (Table 11, maximal asymptote) stood at 99.61. Besides, on CRHR1 [2], the “CRHR1 nH” value was determined as 0.91 ± 0.27.

Consider “HPGSRIVLSLDVPIGLLQILLEQARARAAREQATTNARILARV-NH2 [SEQ ID NO: 117, HPGSRIVLSLDVPIGLLQILLEQARAPAAREQATTNARILARV-NH2, reference compound]”, for which the “Experimental nH” value at CRHR1 [1] (listed as h-SRP) is 1.61 and 1.33 and 1.26. Also, at h-CRHR2b, the “Published pA50” value is ~9^4.

In turn, “TKFTLSLDVPTNIMNLLFNIAKAKNLRAQAAANAHLMAQI-NH2 [SEQ ID NO: 1, TKFTLSLDVPTNIMNLLFNIAKAKNLRAQAAANAHLMAQI-NH2, reference compound]” came in with a pA50 relaxation in experiment [3] (rat aortic rings pre-contracted with phenylephrine) of 6.05±0.12. In addition, the “fold less potent than h-UCN2” value in experiment [3] (relaxation of rat aortic rings) is listed as 10 fold. For the same molecule, the EC50 in experiment [4] (read-out: concentration for 50% response, decrease in coronary perfusion pressure (CPP)) was 46 nM; in experiment [4] (read-out: concentration for 50% response, increase in heart rate) it was 52 nM; in experiment [4] (read-out: concentration for 50% response, increase in left ventricular developed pressure (dP/dtmax)), 9.9 nM. At CRHR1 [2], the “CRHR1 nH” value is recorded as 1.16 ± 0.65. The “Published pA50” value on h-CRHR2b was ~9^4.
